The values below come from ChEMBL document CHEMBL3045280, “Designing Tetrahydroimidazo[1,2-a]pyridine derivatives via catalyst-free Aza-Diels-Alder reaction (ADAR) and their insecticidal evaluation” (2010).

Each structure is given as a SMILES string.

The first assay deals with Aphis craccivora. Put plainly: Insecticidal activity against Aphis craccivora (cowpea aphid) infested tender soybean shoots exposed to 500 mg/L compound solution assessed as insect mortality measured 24 hr post compound treatment (reference value: 4.1%). It counts as functional.
Take `Cc1ccc(C2N3CCN(Cc4ccc(Cl)nc4)C3=C([N+](=O)[O-])C(c3ccco3)C2(C#N)C#N)c(F)c1` (configuration not stated): the mortality (usually the percentage killed) is 100%.
The same measure, in the same setting: the same measure for `N#CC1(C#N)C(c2ccco2)C([N+](=O)[O-])=C2N(Cc3ccc(Cl)nc3)CCN2C1c1cccc(F)c1F` (configuration not stated): 48.8%; for `N#CC1(C#N)C(c2ccco2)C([N+](=O)[O-])=C2N(Cc3ccc(Cl)nc3)CCN2C1c1ccc(OC(F)(F)F)c(Cl)c1` (configuration not stated): 0%; for `N#CC1(C#N)C(c2ccco2)C([N+](=O)[O-])=C2N(Cc3ccc(Cl)nc3)CCN2C1c1ccc(C(F)(F)F)c(F)c1` (configuration not stated): 96.8%.
On the same count and under the same terms, the figure for `N#CC1(C#N)C(c2ccco2)C([N+](=O)[O-])=C2N(Cc3ccc(Cl)nc3)CCN2C1c1ccc(F)cc1` (configuration not stated) is 64.21%; for `Cc1ccc(C2N3CCN(Cc4ccc(Cl)nc4)C3=C([N+](=O)[O-])C(c3ccco3)C2(C#N)C#N)cc1` (configuration not stated) it is 0%; for `Cc1ccc(F)c(C2N3CCN(Cc4ccc(Cl)nc4)C3=C([N+](=O)[O-])C(c3ccco3)C2(C#N)C#N)c1` (configuration not stated) it is 73.9%.
In the case of `N#CC1(C#N)C(c2ccco2)C([N+](=O)[O-])=C2N(Cc3ccc(Cl)nc3)CCN2C1c1ccc(Cl)cc1Cl` (configuration not stated), the mortality is listed as 85.9%.
For the molecule `N#CC1(C#N)C(c2ccco2)C([N+](=O)[O-])=C2N(Cc3ccc(Cl)nc3)CCN2C1c1cccc(Br)c1` (configuration not stated), the mortality is reported as 75.8%.
Consider `N#CC1(C#N)C(c2ccco2)C([N+](=O)[O-])=C2N(Cc3ccc(Cl)nc3)CCN2C1c1ccc(Cl)cc1F` (configuration not stated), for which the mortality came to 56.7%.
As to `N#CC1(C#N)C(c2ccco2)C([N+](=O)[O-])=C2N(Cc3ccc(Cl)nc3)CCN2C1c1ccc(Br)cc1Cl` (configuration not stated), the mortality worked out at 0%.
On the same count and under the same terms, the same measure for `N#CC1(C#N)C(c2ccco2)C([N+](=O)[O-])=C2N(Cc3ccc(Cl)nc3)CCN2C1c1cccc([N+](=O)[O-])c1` (configuration not stated): 0%; for `CN(C)c1ccc(C2N3CCN(Cc4ccc(Cl)nc4)C3=C([N+](=O)[O-])C(c3ccco3)C2(C#N)C#N)cc1` (configuration not stated): 0%; for `N#Cc1cccc(C2N3CCN(Cc4ccc(Cl)nc4)C3=C([N+](=O)[O-])C(c3ccco3)C2(C#N)C#N)c1` (configuration not stated): 0%.
The same measure, in the same setting: the figure for `Cc1ccc(F)cc1C1N2CCN(Cc3ccc(Cl)nc3)C2=C([N+](=O)[O-])C(c2ccco2)C1(C#N)C#N` (configuration not stated) is 0%; for `N#CC1(C#N)C(c2ccco2)C([N+](=O)[O-])=C2N(Cc3ccc(Cl)nc3)CCN2C1c1cc(C(F)(F)F)ccc1F` (configuration not stated) it is 100%; for `N#CC1(C#N)C(c2ccco2)C([N+](=O)[O-])=C2N(Cc3ccc(Cl)nc3)CCN2C1c1ccc(Cl)cc1C(F)(F)F` (configuration not stated) it is 100%.
Still for that read-out and setting: the same measure for `N#CC1(C#N)C(c2ccco2)C([N+](=O)[O-])=C2N(Cc3ccc(Cl)nc3)CCN2C1c1ccc([N+](=O)[O-])cc1` (configuration not stated): 0%; for `N#CC1(C#N)C(c2ccco2)C([N+](=O)[O-])=C2N(Cc3ccc(Cl)nc3)CCN2C1c1ccc(OC(F)(F)F)cc1` (configuration not stated): 0%.
`N#Cc1ccc(C2N3CCN(Cc4ccc(Cl)nc4)C3=C([N+](=O)[O-])C(c3ccco3)C2(C#N)C#N)cc1` (configuration not stated): the mortality is listed as 0%.
Consider `COc1ccc(C2N3CCN(Cc4ccc(Cl)nc4)C3=C([N+](=O)[O-])C(c3ccco3)C2(C#N)C#N)cc1` (configuration not stated), for which the mortality is 0%.
In the case of `N#CC1(C#N)C(c2ccco2)C([N+](=O)[O-])=C2N(Cc3ccc(Cl)nc3)CCN2C1c1ccccc1` (configuration not stated), the mortality was determined as 0%.

A further assay has as its system Aphis craccivora. Put plainly: Insecticidal activity against Aphis craccivora (cowpea aphid) infested tender soybean shoots exposed to compound solution assessed as insect mortality measured 24 hr post compound treatment (reference value: 4.1%). It counts as functional.
Take `Cc1ccc(C2N3CCN(Cc4ccc(Cl)nc4)C3=C([N+](=O)[O-])C(c3ccco3)C2(C#N)C#N)c(F)c1` (configuration not stated): the LC50 (commonly the concentration lethal to half of the exposed cells or organisms) came to 5.52 µM.
On the same count and under the same terms, the same measure for `N#CC1(C#N)C(c2ccco2)C([N+](=O)[O-])=C2N(Cc3ccc(Cl)nc3)CCN2C1c1ccc(C(F)(F)F)c(F)c1` (configuration not stated): 87.4 µM.
Still for that read-out and setting: the figure for `N#CC1(C#N)C(c2ccco2)C([N+](=O)[O-])=C2N(Cc3ccc(Cl)nc3)CCN2C1c1cc(C(F)(F)F)ccc1F` (configuration not stated) is 113 µM; for `N#CC1(C#N)C(c2ccco2)C([N+](=O)[O-])=C2N(Cc3ccc(Cl)nc3)CCN2C1c1ccc(Cl)cc1C(F)(F)F` (configuration not stated) it is 87.2 µM; for `O=[N+]([O-])/N=C1\NCCN1Cc1ccc(Cl)nc1` [IMIDACLOPRID] it is 35 µM.
